We go through 11 compounds from US8129366B2, “VLA-4 inhibitory drug” (Daiichi Sankyo Company, Limited, priority 2005, dated 2012).

One data set has as its target T1, hα4 and β1 integrins (Homo sapiens, UniProt P05556+P13612).
T1 construct: expressed in transfected cells; host or cells: CHO cells
The experiment in a line: In vitro inhibition of binding between CHO cells expressing hα4 and β1 integrins and Eu3+-hVCAM-1 D1D7-IgG. The settings on record: for Ki: CHO cells expressing hα4 and β1 integrins, Eu3+-hVCAM-1 D1D7-IgG ligand, without HSA; for IC50: in the presence of 3% human serum albumin (HSA final concentration 3%). In outline:
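Transfected CHO cells, cultured 2 days, were incubated with compound and Eu³⁺-hVCAM-1 D1D7-IgG (diluted to 2 nM) for 1 h at room temperature. Buffer was 25 mM HEPES pH 7.5 with 1 mM Ca²⁺, 1 mM Mg²⁺, 4 mM Mn²⁺ and 0.1% BSA, ±3% HSA final. Cells were washed at 4 °C and read by DELFIA time-resolved fluorescence; Ki was derived from IC50 using the Scatchard Kd.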

Data set [1] is described as follows: Test for pharmacokinetics and oral absorbability in monkeys. In kind it is in vivo. Conditions: orally 0.5 mg/kg, single agent; for AUC (ng · h/ml): total area under the plasma concentration versus time curve: LC/MS/MS. As to the method:
The pharmacokinetic parameters in the case of orally administering (0.5 mg/kg, single agent) the substance under test to monkeys, were as follows.

The conditions of data set [2]: for Solubility, First liquid of Japanese Pharmacopoeia: pH 1.2; for Solubility, Second liquid of Japanese Pharmacopoeia: pH 6.8.
Protocol: (§2) The solubilities of the substance under test in the first liquid (JP1, pH=1.2) of the Japanese Pharmacopoeia and the second liquid (JP2, pH=6.8) of the Japanese Pharmacopoeia, were evaluated.
Data set [3] is described as follows: Solubility test in first and second liquid of the Japanese Pharmacopoeia.
Protocol: as §2
Data set [4] has as its system eosinophile infiltration in mice actively sensitized with ascaris. The experiment in a line: Test for eosinophile infiltration in mice actively sensitized with ascaris, administered two times a day. Format: in vivo. Conditions: orally 5 mg/kg two times a day; for inhibition in vivo at 5 mg/kg: Mus musculus, po, eosinophile count in BALF 48 hours after sensitization vs ascaris-sensitized group, read-out: suppression rate (%); for Average total eosinophile count (×10^5) of (ascaris-sensitized + substance under test) group: BALF 48 hours after sensitization. As to the method:
(§1) Test for eosinophile infiltration in mice actively sensitized with ascaris (antigen to pig roundworm):
It has been reported that infiltration of eosinophilic cells is induced by active sensitization with ascaris {Int. Arch. Immuno., 108, 11-18 (1995)}. An evaluation of the compounds under test was performed according to the evaluation method described herein. The substance under test was orally administered in an amount of 5 mg/kg, two times a day. The total cell count and the eosinophile count in BALF of 48 hours after sensitization were calculated, and the effects were determined by comparing with the group not administered with the substance under test.

Data set [5] has the same test system. The data set can be described thus: Test for eosinophile infiltration in mice actively sensitized with ascaris, once-a-day administration. Format: in vivo. The settings on record: orally 0.8 mg/kg once a day. The protocol: as §1
In the same manner as in Evaluation Example 2, the substances under test were orally administered once a day, in an amount of 5 mg/kg for compound A (representative compound of WO 02/053534) and the compound of Example 58, and in an amount of 0.8 mg/kg of the compound of Example 161, and an evaluation was performed in the same manner as in Evaluation Example 2.

Where [6] appears, read: first liquid of the Japanese Pharmacopoeia (JP1), pH 1.2, simulated gastric fluid, First liquid of Japanese Pharmacopoeia (μg/mL), JP1, pH=1.2.
Where [7] appears, read: second liquid of the Japanese Pharmacopoeia (JP2), pH 6.8, aqueous buffer, Second liquid of Japanese Pharmacopoeia (μg/mL), JP2, pH=6.8.

≈ marks a conversion by molar mass, not a printed value. Read-outs that look alike come from different tables or passages of the source.

T1 sequence (P13612 34-1032): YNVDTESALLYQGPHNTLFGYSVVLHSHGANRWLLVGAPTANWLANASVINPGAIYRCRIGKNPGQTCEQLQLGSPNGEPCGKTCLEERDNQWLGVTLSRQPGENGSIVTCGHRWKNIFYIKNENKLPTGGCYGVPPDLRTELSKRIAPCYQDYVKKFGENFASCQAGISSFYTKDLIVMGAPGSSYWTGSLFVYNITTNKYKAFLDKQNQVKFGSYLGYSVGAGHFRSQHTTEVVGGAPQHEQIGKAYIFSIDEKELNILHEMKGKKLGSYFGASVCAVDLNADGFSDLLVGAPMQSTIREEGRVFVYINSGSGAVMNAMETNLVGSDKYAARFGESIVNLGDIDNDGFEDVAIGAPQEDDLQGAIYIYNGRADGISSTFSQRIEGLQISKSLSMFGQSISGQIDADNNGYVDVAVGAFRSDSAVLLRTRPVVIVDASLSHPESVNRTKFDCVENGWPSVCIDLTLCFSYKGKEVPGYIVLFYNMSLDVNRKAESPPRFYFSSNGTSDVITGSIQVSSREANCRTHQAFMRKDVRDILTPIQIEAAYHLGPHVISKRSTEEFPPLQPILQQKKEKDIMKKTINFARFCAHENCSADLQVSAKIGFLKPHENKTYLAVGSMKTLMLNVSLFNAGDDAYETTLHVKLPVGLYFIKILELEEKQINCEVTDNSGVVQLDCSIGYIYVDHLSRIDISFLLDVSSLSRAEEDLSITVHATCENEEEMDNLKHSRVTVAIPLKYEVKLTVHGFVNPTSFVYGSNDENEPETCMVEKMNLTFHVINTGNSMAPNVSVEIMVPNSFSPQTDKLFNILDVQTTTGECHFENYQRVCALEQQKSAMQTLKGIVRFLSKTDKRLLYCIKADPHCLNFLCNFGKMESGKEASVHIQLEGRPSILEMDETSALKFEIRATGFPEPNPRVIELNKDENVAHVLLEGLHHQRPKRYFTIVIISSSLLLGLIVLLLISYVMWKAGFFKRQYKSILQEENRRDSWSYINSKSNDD
T1 sequence (P05556 21-798): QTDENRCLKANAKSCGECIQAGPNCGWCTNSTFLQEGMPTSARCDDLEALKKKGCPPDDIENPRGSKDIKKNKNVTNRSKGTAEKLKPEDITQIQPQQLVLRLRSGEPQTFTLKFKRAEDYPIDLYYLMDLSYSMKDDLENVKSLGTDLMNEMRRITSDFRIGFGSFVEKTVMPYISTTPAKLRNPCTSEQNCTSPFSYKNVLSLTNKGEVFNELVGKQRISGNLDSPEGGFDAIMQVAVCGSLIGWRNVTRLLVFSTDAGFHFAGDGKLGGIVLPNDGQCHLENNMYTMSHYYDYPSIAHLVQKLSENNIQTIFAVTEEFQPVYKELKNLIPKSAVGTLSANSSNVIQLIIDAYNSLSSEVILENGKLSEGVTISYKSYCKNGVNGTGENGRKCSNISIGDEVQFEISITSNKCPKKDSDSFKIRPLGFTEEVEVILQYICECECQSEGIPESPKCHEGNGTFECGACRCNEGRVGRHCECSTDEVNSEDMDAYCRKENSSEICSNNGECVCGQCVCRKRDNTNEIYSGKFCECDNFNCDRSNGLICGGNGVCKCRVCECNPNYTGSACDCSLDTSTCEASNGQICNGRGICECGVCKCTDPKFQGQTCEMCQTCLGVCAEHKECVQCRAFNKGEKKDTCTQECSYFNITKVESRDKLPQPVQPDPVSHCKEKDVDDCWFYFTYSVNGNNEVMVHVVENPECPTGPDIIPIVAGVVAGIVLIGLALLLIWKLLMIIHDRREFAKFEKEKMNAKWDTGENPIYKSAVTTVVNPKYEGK

In general, Ki refers to a measure of affinity in units of concentration, obtained from inhibition or displacement. The low end stands for tighter binding, the high end for weaker binding. The IC50 is the concentration at which inhibition is half-maximal. For `C[C@@H]1CN([C@H]2C[C@@H](CO[C@H]3CC[C@H](C(=O)O)CC3)N(C(=O)Cc3cc(Cl)c(NC(=O)c4coc5ccccc45)cc3Cl)C2)C[C@H](C)O1` [Example 83, Trans-4-[1-[[4-[(benzo[b]furan-3-ylcarbonyl)amino]-2,5-dichlorophenyl]acetyl]-(4S)-(cis-2,6-dimethylmorpholin-4-yl)-(2S)-pyrrolidinylmethoxy]cyclohexanecarboxylic acid], on hα4 and β1 integrins, the Ki is 5.2 nM and the IC50 is 42 nM. Further, in data set [1], the “Cltot (mL/min/kg): apparent plasma clearance” value (“Cltot (mL/min/kg)” for short) was found to be 0.56 mL/min/kg and the “AUC (ng · h/ml): total area under the plasma concentration versus time curve” value turned out to be 15064 ng·h/mL.

Take `COC1CN([C@H]2C[C@@H](CO[C@H]3CC[C@H](C(=O)O)CC3)N(C(=O)Cc3cc(Cl)c(NC(=O)c4csc5ccccc45)cc3Cl)C2)C1` (relative stereo) [Example 4, Trans-4-[1-[[4-[(benzo[b]thiophen-3-ylcarbonyl)amino]-2,5-dichlorophenyl]acetyl]-(4S)-(3-methoxyazetidin-1-yl)-(2S)-pyrrolidinylmethoxy]cyclohexanecarboxylic acid]: at hα4 and β1 integrins, the Ki came to 0.8 nM and the concentration for half-maximal inhibition (IC50) came to 19 nM. Besides, in data set [2], the “Solubility, First liquid of Japanese Pharmacopoeia” value (“Solubility, First liquid” below) was above 2000 µg/mL and the “Solubility, Second liquid of Japanese Pharmacopoeia” value (from here on “Solubility, Second liquid”) is above 2000 µg/mL.

Regarding `COC1CN([C@H]2C[C@@H](CO[C@H]3CC[C@H](C(=O)O)CC3)N(C(=O)Cc3cc(Cl)c(NC(=O)c4cn(C)c5ccccc45)cc3Cl)C2)C1` (relative stereo) [Example 2, Trans-4-[1-[[2,5-dichloro-4-[(1-methyl-1H-indol-3-ylcarbonyl)amino]phenyl]acetyl]-(4S)-(3-methoxyazetidin-1-yl)-(2S)-pyrrolidinylmethoxy]cyclohexanecarboxylic acid], on hα4 and β1 integrins, the Ki came out at 2.2 nM and the IC50 came to 17 nM. Further, the “Solubility, First liquid” value in data set [3] (JP1, pH=1.2) is above 2000 µg/mL. For the same compound, the “Solubility, Second liquid” value in data set [3] (JP2, pH=6.8) was above 2000 µg/mL. Also, in data set [1], the “Cltot (mL/min/kg)” value amounted to 0.40 mL/min/kg and the “AUC (ng · h/ml): total area under the plasma concentration versus time curve” value amounted to 22185 ng·h/mL.

For the compound `CO[C@H]1CN([C@H]2C[C@@H](CO[C@H]3CC[C@H](C(=O)O)CC3)N(C(=O)Cc3ccc(NC(=O)c4coc5ccccc45)c(Cl)c3)C2)C[C@H]1OC` (relative stereo) [Example 61, Trans-4-[1-[[4-[(benzo[b]furan-3-ylcarbonyl)amino]-3-chlorophenyl]acetyl]-(4S)-(cis-3,4-dimethoxypyrrolidin-1-yl)-(2S)-pyrrolidinylmethoxy]cyclohexanecarboxylic acid], at hα4 and β1 integrins, the affinity, expressed as Ki, was 1.6 nM and the IC50 is 5.5 nM. Besides, in data set [2], the “Solubility, First liquid” value worked out at 1100 µg/mL and the “Solubility, Second liquid” value is 1300 µg/mL.

Broadly, the solubility is the dissolved amount per volume that the medium holds. Higher therefore signals a readily soluble substance. As for `CC1CN([C@H]2C[C@@H](CO[C@H]3CC[C@H](C(=O)O)CC3)N(C(=O)Cc3cc(Cl)c(NC(=O)c4cn(C)c5ccccc45)cc3Cl)C2)C1` [Example 10, Trans-4-[1-[[2,5-dichloro-4-[(1-methyl-1H-indol-3-ylcarbonyl)amino]phenyl]acetyl]-(4S)-(3-methylazetidin-1-yl)-(2S)-pyrrolidinylmethoxy]cyclohexanecarboxylic acid], at hα4 and β1 integrins, the inhibition constant (Ki) is 9.5 nM and the IC50 was 37 nM. Moreover, in data set [4], the inhibition in vivo at 5 mg/kg stood at 44% and the “Average total eosinophile count (×10^5) of (ascaris-sensitized + substance under test) group” value (“Average total eosinophile count” below) was 1.73 ×10^5. This compound also had a solubility in data set [3] (setting [6]) above 2000 µg/mL. For the same compound, the solubility in data set [3] (setting [7]) was above 2000 µg/mL. Further, in data set [1], the “Cltot (mL/min/kg)” value was 0.80 mL/min/kg and the “AUC (ng · h/ml): total area under the plasma concentration versus time curve” value came out at 10799 ng·h/mL.

As for `Cn1cc(C(=O)Nc2cc(Cl)c(CC(=O)N3C[C@@H](N4CCN(C5CC5)CC4)C[C@H]3CO[C@H]3CC[C@H](C(=O)O)CC3)cc2Cl)c2ccccc21` [Example 139, Trans-4-[1-[[2,5-dichloro-4-[(1-methyl-1H-indol-3-ylcarbonyl)amino]phenyl]acetyl]-(4S)-(4-cyclopropylpiperazin-1-yl)-(2S)-pyrrolidinylmethoxy]cyclohexanecarboxylic acid], at hα4 and β1 integrins, the inhibition constant Ki worked out at 2.5 nM and the concentration for half-maximal inhibition (IC50) came out at 13 nM. For the same compound, in data set [1], the “Cltot (mL/min/kg)” value is 1.2 mL/min/kg and the “AUC (ng · h/ml): total area under the plasma concentration versus time curve” value was 7329 ng·h/mL.

For the compound `Cn1cc(C(=O)Nc2cc(F)c(CC(=O)N3C[C@@H](N4CCN(CC(F)(F)F)CC4)C[C@H]3CO[C@H]3CC[C@H](C(=O)O)CC3)cc2Cl)c2ccccc21` [Example 124, Trans-4-[1-[[5-chloro-2-fluoro-4-[(1-methyl-1H-indol-3-ylcarbonyl)amino]phenyl]acetyl]-(4S)-[4-(2,2,2-trifluoroethyl)piperazin-1-yl]-(2S)-pyrrolidinylmethoxy]cyclohexanecarboxylic acid], at hα4 and β1 integrins, the affinity, expressed as Ki, was 4.9 nM and the IC50 amounted to 17 nM. In addition, in data set [4], the inhibition in vivo at 5 mg/kg turned out to be 63% and the “Average total eosinophile count” value is on record as 1.72 ×10^5.

For the compound `Cn1cc(C(=O)Nc2cc(F)c(CC(=O)N3C[C@@H](N4CCN(CCF)CC4)C[C@H]3CO[C@H]3CC[C@H](C(=O)O)CC3)cc2Cl)c2ccccc21` [Example 118, Trans-4-[1-[[5-chloro-2-fluoro-4-[(1-methyl-1H-indol-3-ylcarbonyl)amino]phenyl]acetyl]-(4S)-[4-(2-fluoroethyl)piperazin-1-yl]-(2S)-pyrrolidinylmethoxy]cyclohexanecarboxylic acid], at hα4 and β1 integrins, the Ki worked out at 3.9 nM and the IC50 amounted to 13 nM. Further, in data set [4], the inhibition in vivo at 5 mg/kg was determined as 67% and the “Average total eosinophile count” value is on record as 1.41 ×10^5. The solubility in data set [3] (setting [6]) was 1000 µg/mL (≈ 1430 µM). In data set [3] (setting [7]), this compound registered a solubility of 1000 µg/mL (≈ 1430 µM).

As for `O=C(Nc1cc(F)c(CC(=O)N2C[C@@H](N3CCS(=O)(=O)CC3)C[C@H]2CO[C@H]2CC[C@H](C(=O)O)CC2)cc1Cl)c1coc2ccccc12` [Example 161, Trans-4-[1-[[4-[(benzo[b]furan-3-ylcarbonyl)amino]-5-chloro-2-fluorophenyl]acetyl]-(4S)-(1,1-dioxo-1λ^6-thiomorpholin-4-yl)-(2S)-pyrrolidinylmethoxy]cyclohexanecarboxylic acid], at hα4 and β1 integrins, the affinity corresponds to a Ki of 1.8 nM and the half-inhibitory concentration (IC50) is 8.3 nM. Also, the “Average total eosinophile count” value in data set [5] is 2.06 ×10^5.

In the case of `COC1CN([C@H]2C[C@@H](CO[C@H]3CC[C@H](C(=O)O)CC3)N(C(=O)Cc3cc(Cl)c(NC(=O)c4coc5ccccc45)cc3F)C2)C1` (relative stereo) [Example 5, Trans-4-[1-[[4-[(benzo[b]furan-3-ylcarbonyl)amino]-5-chloro-2-fluorophenyl]acetyl]-(4S)-(3-methoxyazetidin-1-yl)-(2S)-pyrrolidinylmethoxy]cyclohexanecarboxylic acid], on hα4 and β1 integrins, the inhibition constant (Ki) was 1.4 nM and the IC50 was 12 nM. Moreover, in data set [2], the “Solubility, First liquid” value came out at 1970 µg/mL and the “Solubility, Second liquid” value was above 2000 µg/mL.

Take `COC1CN([C@H]2C[C@@H](CO[C@H]3CC[C@H](C(=O)O)CC3)N(C(=O)Cc3cc(Cl)c(NC(=O)c4csc5ccccc45)cc3F)C2)C1` (relative stereo) [Example 3, Trans-4-[1-[[4-[(benzo[b]thiophen-3-ylcarbonyl)amino]-5-chloro-2-fluorophenyl]acetyl]-(4S)-(3-methoxyazetidin-1-yl)-(2S)-pyrrolidinylmethoxy]cyclohexanecarboxylic acid]: at hα4 and β1 integrins, the affinity corresponds to a Ki of 0.97 nM and the IC50 came to 11 nM. Besides, the “Solubility, First liquid” value in data set [3] (JP1, pH=1.2) stood at 1848 µg/mL. In addition, in data set [3] (JP2, pH=6.8), the “Solubility, Second liquid” value came to 1989 µg/mL. In addition, in data set [1], the “Cltot (mL/min/kg)” value stood at 0.26 mL/min/kg and the “AUC (ng · h/ml): total area under the plasma concentration versus time curve” value came out at 32510 ng·h/mL.
